Measured values as given in publication PMC11004067, “Identification and characterization of a calcium-binding peptide from salmon bone for the targeted inhibition of α-amylase in digestion” (Food Chemistry: X, 2024).

Tests used:
3 T3-L1 preadipocytes [1] = test: Total cellular cholesterol content; assay type: cell-based; details: 1000 μg/mL
Experimental: (§1) With minor modifications based on the method ([Lee et al., 2023]). 3 T3-L1 Preadipocytes were cultured at 37 °C and 5% CO2 until 80% fusion, passaged and differentiated. After induction with inducers for 8d, the cells were then cultured with DMEM containing 1% PS and 10% FBS for 4d.
Total cellular cholesterol content was measured using a kit (JianCheng, Nanjing, China). The […] enzymatic method was used according to the manufacturer's instructions. Protein concentration was measured using the BCA protein assay kit (Solarbio, Beijing, China).

α-amylase [2] = test: α-amylase conformation: secondary structure content by circular dichroism; assay type: biochemical; details: 1-1000 μg/mL
Experimental: The effect of peptides on the secondary structure of α-amylase was analyzed by circular dichroism. α-Amylase was reacted with the following different concentrations of SBPH, SBTH, and SBNPH: 1, 10, 100, and 1000 μg/mL. The test parameters were as follows: 1 mm quartz cuvette; scanning wavelength range = 190– 250 nm; bandwidth = 2 nm; scanning speed = 100 nm/min; and response time = 1 s. α-Amylase without SBPH, SBTH, and SBNPH treatment was used as the blank control, and it was analyzed under the same conditions. The experimental results were obtained by subtracting the buffer background from the scanned data ([Zhang & Ma, 2013]).

[3] = Effect of PIE on body weight in mice; assay type: in vivo; details: 30 mg/kg by gavage, 12 weeks, female BALB/c mice
Experimental: The animal study was approved by the Animal Ethics Committee of Dalian Polytechnic University (protocol ID SYXK2017–0005) per the guidelines of the National Institutes of Health Laboratory Animals for Animal Care. 10-week-old female BALB/c mice (L20160258, Dalian Medical University, Liaoning, China) were acclimatized with normal chow for 2 d, and were randomly separated 2 groups (n = 8): the control group (saline) and the PIE group (at a dose of 30 mg PIE/kg body weight). Both groups were maintained on a basal diet throughout the study. Given that mice are nocturnal feeders, gavage was performed between 5:00–6:00 PM. Body weights were measured and recorded at 7-day intervals. The feed and water were provided ad libitum to mice. Changes in body weight were analyzed after 12 weeks of continuous gavage ([Pinzón-García et al., 2018]).

[4] = Ca-binding capacity (colorimetric Ca kit); details: 5 mg sample, 1 mL 5 mM CaCl2, 2 mL PBS 20 mM pH 7, 37 °C 1 h; ranking in words, Fig. 1C
Experimental: The Ca-binding capacities of SBPH, SBTH, and SBNPH were determined according to the previous study ([Choi, Jung, Choi, Kim, & Ha, 2005]). 5 mg lyophilized powder of SBPH, SBTH, and SBNPH, was mixed with 1 mL of 5 mM CaCl2 and 2 mL of phosphate-buffered saline (PBS, 20 mM, pH = 7). The mixture was stirred at 37 °C pH = 7 for 1 h, followed by centrifugation at 5000 rpm for 10 min. The calcium content in the supernatant was determined using colorimetry with Ca assay kits (JianCheng, Nanjing, China).

3 T3-L1 preadipocytes [5] = test: Cellular triglyceride content; assay type: cell-based; details: 1000 μg/mL, with Inducers I and II
Experimental: as §1
Cellular triglyceride content (TG) was measured using a kit (JianCheng, Nanjing, China). Differentiated adipocytes were treated with different samples in 6-well plates according to the manufacturer's instructions. Cells were first washed with PBS, followed by the addition of ethanol. The cells were then transferred into centrifuge tubes using a cell scraper. Subsequently, the cells were broken down by ultrasound in an ice water bath. […] was measured using a specialized kit.

α-amylase [6] = test: Kinetics of α-amylase inhibition (Lineweaver-Burk); assay type: biochemical; details: 37 °C
Experimental: The kinetics of α-amylase inhibition was performed with minor modifications as previously reported ([Cardullo et al., 2020]). In the reaction system, 1 mL of soluble starch solution (10 mg/mL) and 1 mL of different concentrations of SBPH, SBTH, and SBNPH (concentrations of 1, 10, 100, and 1000 μg/mL, respectively) were added. a temperature bath was maintained at 37 °C for 30 min. Different concentrations of α-amylase solution were added. The change in absorbance value of the system was determined. Plot the rate of enzymatic reaction versus α-amylase concentration.
To the reaction system, 1 mL of soluble starch solution of different concentrations (0, 5, 10, 15, 20, 25 mg/mL) was added. The effects of different concentrations of SBPH, SBTH and SBNPH on α-amylase activity were determined at 37 °C in a water bath. Finally, the inverse of the concentration of soluble starch solution was used as the horizontal coordinate and plotted with Lineweaver-Burk plots to determine the type of inhibition of α-amylase by SBPH, SBTH and SBNP. The general equation for reversible inhibition is given below: v=vmaxS/Km1+i/Kic+1+i/Kiu 1/v=Km+s/vmaxs+iKm/Kic+s/Kiu/vmaxs 1/v=Km/vmax1+i/Kic+s/vmax1+i/Kiu where Km is the Michaelis-menten constand (mg/mL), v denotes the initial reaction rate (U, mm/min), S denotes the substrate concentration (mg/mL), i denotes the content of the inhibitor concentration (U, mg/mL), Kic denotes the inhibitory constant of the competitive inhibitor, and Kiu denotes the inhibitory constant of the non-competitive inhibitor.

α-amylase [7] = test: α-amylase inhibition rate (DNS method, soluble starch); assay type: biochemical; details: 100 μg/mL; α-amylase 4 units/mL, PBS pH 6.9, 37 °C 10 min, 1% soluble starch 5 min, DNS 540 nm; mean, n = 3
Experimental: (§2) The activity of α-amylase was determined spectrophotometrically using soluble starch as the substrate and 3,5-dinitrosalicylic acid (DNS) as the chromogenic agent. α-amylase solution (4 units/mL, 0.25 mL) and 0.25 mL each of SBPH, SBTH, and SBNPH (each at 1 μg/mL, 10 μg/mL, 100 μg/mL, and 1000 μg/mL concentrations) were added to 0.5 mL of PBS (pH 6.9, 0.2 mol/L) to make test solutions. These solutions were then incubated at 37 °C for 10 min. Then, 0.5 mL of 1% soluble starch solution was added to each test solution to continue the reaction for 5 min. Thereafter, l mL of DNS reagent was added to each solution, and the mixtures were boiled for 10 min. After the dilution of five times, the absorbance value was measured at 540 nm ([Wu et al., 2019]). The inhibition of the activity of α-amylase by salmon bone hydrolysate was calculated as using the formula (1):(1) I%=[1−B−b/A−a×100% where I represents the inhibition rate of α-amylase by salmon bone hydrolysates. A represents the absorbance value of the blank tube, a represents the absorbance value of the blank control tube, B represents the absorbance value of the inhibition tube, and b represents the absorbance value of the background control tube.

α-amylase [8] = test: DLS analysis of α-amylase particle size / hydrodynamic radius; assay type: biochemical; details: α-amylase 4 units/mL, substance 1-1000 μg/mL, 24 h incubation
Experimental: The α-amylase solution (4 units/mL) and SBPH, SBTH, and SBNPH solutions (each at 1, 10, 100, and 1000 μg/mL concentrations) were prepared. Filtration was performed using a 0.45-μm filter. The α-amylase solution was incubated with different concentrations of SBPH, SBTH, and SBNPH solutions for 24 h. Each sample (1 mL) was analyzed using the DLS apparatus. The particle size variation of α-amylase in each solution was analyzed. The α-amylase alone solution was used as a positive control under the same conditions ([Xiong et al., 2016]).

[9] = ref Xu et al., 2020, 2019, 2022; cited from earlier work
[10] = ref Xu et al., 2020, 2019, 2022; cited from earlier work; remark: listed apart in the source
Source text: Peptidomics facilitates the comprehensive characterization of peptides on a large scale. This analytical approach offers a time-efficient means of generating an extensive array of peptide fragments ([Martini, Solieri, & Tagliazucchi, 2021]). Herein, the peptide sequences were retrieved from an established database using MASCOT, and active peptide sequences with Ca-binding capacities were identified. The peptide sequences from SBTH were identified in Table S1 (Supplementary materials), along with information on their amino acid sequences, lengths, and molecular weights. A total of 6505 peptide ...

α-amylase [11] = test: α-amylase inhibition during in vitro simulated gastrointestinal digestion; assay type: biochemical; details: 0-240 min, DNS method
Experimental: as §2, with “The inhibition of the activity of α-amylase by salmon bone hydrolysate was calculated as using the formula (1):(1) I%=[1−B−b/A−a×100% where I represents the inhibition rate of α-amylase by salmon bone hydrolysates.” left out
A gastrointestinal digestion simulation test was performed according to a previously reported method ([Brodkorb et al., 2019]). Samples were assessed at 0, 10, 30, 60, 90, 120, 130, 150, 180, 210, and 240 min. The inhibition rates of SBPH, SBTH, and SBNPH for α-amylase were determined by the DNS method.

3 T3-L1 preadipocytes [12] = test: Cell viability (MTT) in 3 T3-L1 preadipocytes; assay type: cell-based; details: 24 h, 1 to 100 μg/mL
Experimental: With slight modifications based on the method ([Cui et al., 2019]). MTT method was used to assess the proliferative effects of different concentrations of orlistat, SBTH and PIE on 3 T3-L1 preadipocytes. Cells were treated with different samples for 24 h. Finally, the absorbance at 490 nm was measured using a Microplate Reader (Synergy H1, BioTek, USA).

[13] = Lineweaver-Burk double inverse plots, soluble starch 0-25 mg/mL

Q: For “IEELEEELEAER [PIE, Ile-Glu-Glu-Leu-Glu-Glu-Glu-Glu-Leu-Glu-Ala-Glu-Arg, peptide … from SBTH, purity 94.74%, synthesized at ChinaPeptides]”, which “TC content decreased to” value (3 T3-L1 preadipocytes [1]) is on record?
A: Its value is 54.35%.

Q: What about the “change of α-amylase secondary structure with increasing concentration” value (α-amylase [2]) of the same molecule?
A: Its value is “a decrease in α-helix content and an increase in β-fold structures”.

Q: And the “body weight change” value ([3]; n = 8)?
A: Its value is “no significant weight change”.

Q: What about the “weight gain over three months” value ([3]; n = 8, basal diet, control group 33.65%) of the same molecule?
A: Its value is 6.61%.

Q: And the “calcium-binding capacity / affinity” value [4]?
A: The value was “greatest affinity for calcium”.

Q: What about the “TG content reduced to” value (3 T3-L1 preadipocytes [5]) of the same molecule?
A: The value was 52.11%.

Q: And the KI (α-amylase [6]; [13])?
A: Its KI is 3290 µg/mL.

Q: And the KIS (α-amylase [6]; [13])?
A: The KIS was 3.97 mg/mL.

Q: What about the “reversibility of α-amylase inhibition” value (α-amylase [6]; enzyme reaction rate against α-amylase concentration) of the same molecule?
A: The value was “reversible”.

Q: What about the α-amylase inhibition rate (α-amylase [7]) of the same molecule?
A: The α-amylase inhibition rate was 58.81%.

Q: And the “hydrodynamic radius of α-amylase” value (α-amylase [8])?
A: Its value is “increased gradually”.

Q: What about the “activity and stability in the gastrointestinal tract” value [9] of the same molecule?
A: The value was “robust activity and stability within the gastrointestinal tract”.

Q: And the calcium-binding capability [10]?
A: Its calcium-binding capability is “pronounced calcium-binding capability”.

Q: What about the “α-amylase inhibition rate with simulated digestion time” value (α-amylase [11]) of the same molecule?
A: Its value is “the inhibition rate decreased significantly with the increasing duration of gastrointestinal digestion”.

Q: With `CCCCCCCCCCC[C@@H](C[C@@H]1OC(=O)[C@H]1CCCCCC)OC(=O)[C@H](CC(C)C)NC=O` [orlistat] as the molecule, how does the cytotoxicity (3 T3-L1 preadipocytes [12]) read?
A: Its cytotoxicity is “no cytotoxicity”.
